Earlier results in patent US12257290B2, “PIC1 inhibition of myeloperoxidase oxidative activity in an animal model” (priority 2018, dated 2025).

Details: intranasal administration; animal models; cited from earlier work

In the case of DNase, the “symptoms of TRALI” value is listed as “reduced symptoms of TRALI”.
